Experiments:
Assay type in all cases: biochemical
[1] = Hydrogen peroxide generation by enzymes on substrates; conditions: for μg of H2O2 produced/ml: one unit enzyme, pH 6.3, 37° C., 12 h
Procedure: Seven enzymes, including glucose oxidase, glycerol-3-phosphate oxidase, xanthine oxidase, cholesterol oxidase, galactose oxidase, alcohol oxidase and pyruvate oxidase, were tested for hydrogen peroxide generation on five substrates, including tampon material (e.g., cellulosic materials, including, but not limited to, cotton and rayon fibers), polydextran, carboxymethylcellulose, chitosan, and poly (vinyl alcohol).
One unit of each enzyme was combined with 0.05 ml of a saturated solution (in distilled, deionized water) of each substrate in a test tube and diluted to 0.5 ml with buffer (0.5 M Tris buffer, pH adjusted to 6.3). In the case of insoluble substrates, a piece (approximately 0.25 g) of the substrate was placed in the test tube. The tubes were placed in an oscillating incubator at 37° C. After 12 h, the tubes were removed and the solution was assayed for H2O2 level by an established method (Graf, E. and Penniston, J. T., “Method for Determination of Hydrogen Peroxide, With Its Application Illustrated by Glucose Assay,” Clinical Chemistry, 26, 658-660 (1980)). The results are depicted in Table 2 in μg H2O2 per ml. (For production of hydrogen peroxide over time, see FIG. 1.)

[2] = H2O2 production by alcohol oxidase on modified pva/polycap polymer versus unmodified poly (vinyl alcohol); conditions: direct comparison (data not shown)
[3] = Self-limiting features of peroxide generation, alcohol oxidase-carboxymethylcellulose; conditions: carboxymethylcellulose substrate, 37° C.
Procedure: FIG. 4 is a graphical representation of the effect of pH on hydrogen peroxide production. Depicted is hydrogen peroxide production resulting from alcohol oxidase activity with carboxymethylcellulose as a function of pH (with no initial peroxide added, after agitation for 8 hours at 37° C. in normal atmosphere).
FIG. 5 is a graphical representation of the effect of initial hydrogen peroxide (H2O2) on H2O2 production. Depicted is hydrogen peroxide production resulting from alcohol oxidase activity with carboxymethylcellulose as a function of initial hydrogen peroxide added (at pH 6.3, after agitation for 8 hours at 37° C. in normal atmosphere).
One of the enzyme-substrate combinations, alcohol oxidase-carboxymethylcellulose, was further studied. One unit of enzyme was combined with 0.05 ml of 2.5% carboxymethyl cellulose in a test tube and diluted to 0.5 ml with buffer of appropriate pH. The tubes were placed in an oscillating incubator at 37° C. After 8 hours, the tubes were removed and the solution was assayed for H2O2 level.

[4] = substrate Tampon Material (cotton)

Substance | level of H2O2 production compared with the other enzymes ([1]; across the five substrates of Table 2) | μg of H2O2 produced/ml ([1]; substrate CM Cellulose) | μg of H2O2 produced/ml ([1]; substrate Chitosan) | μg of H2O2 produced/ml ([1]; substrate Poly(vinyl alcohol)) | μg of H2O2 produced/ml ([1]; substrate Polydextran) | μg of H2O2 produced/ml [1, 4] | more H2O2 produced on modified pva/polycap polymer than on unmodified poly (vinyl alcohol) [2] | enzyme activity as a function of pH ([3]; 8 hours, FIG. 4) | hydrogen peroxide production at pH 6.3 ([3]; pH 6.3, 8 hours) | effect of initial hydrogen peroxide on enzyme activity ([3]; pH 6.3, 8 hours, FIG. 5)
alcohol oxidase | highest level of H2O2 production on most of the substrates | 103.96 μg H2O2 per ml | 9.38 μg H2O2 per ml | 53.20 μg H2O2 per ml | 92.89 μg H2O2 per ml | 97.84 μg H2O2 per ml | 22% | decreased with decreasing pH | high levels of hydrogen peroxide | deactivated in the presence of high concentrations of hydrogen peroxide
cholesterol oxidase |  | 4.01 μg H2O2 per ml | 14.09 μg H2O2 per ml | 5.13 μg H2O2 per ml | 3.89 μg H2O2 per ml | 4.92 μg H2O2 per ml |  |  |  | 
galactose oxidase |  | 4.43 μg H2O2 per ml | 8.06 μg H2O2 per ml | 4.34 μg H2O2 per ml | 3.89 μg H2O2 per ml | 6.45 μg H2O2 per ml |  |  |  | 
glucose oxidase |  | 3.31 μg H2O2 per ml | 10.66 μg H2O2 per ml | 4.47 μg H2O2 per ml | 54.69 μg H2O2 per ml | 4.43 μg H2O2 per ml |  |  |  | 
glycerol-3-phosphate oxidase |  | 3.97 μg H2O2 per ml | 9.01 μg H2O2 per ml | 3.85 μg H2O2 per ml | 4.01 μg H2O2 per ml | 4.84 μg H2O2 per ml |  |  |  | 
pyruvate oxidase |  | 9.84 μg H2O2 per ml | 11.94 μg H2O2 per ml | 3.85 μg H2O2 per ml | 9.75 μg H2O2 per ml | 6.66 μg H2O2 per ml |  |  |  | 
xanthine oxidase |  | 6.08 μg H2O2 per ml | 10.00 μg H2O2 per ml | 6.00 μg H2O2 per ml | 5.96 μg H2O2 per ml | 10.46 μg H2O2 per ml |  |  |  | 

Source: patent publication US20040126369A1, “Delivery of peroxide-generating enzymes to the vaginal tract” (priority 2002, published 2004)
